Test results from patent US20250270216A1, “ANTI-INFECTIVE AGENTS” (UNIVERSITY OF DUNDEE, priority 2022, published 2025).

What was measured:
[1] = molecular target: Cryptosporidium parvum lysyl t-RNA synthetase (Cp KRS) (Cryptosporidium parvum, UniProt Q5CR27); assay: In vitro inhibition of Cryptosporidium lysyl tRNA synthetase (KRS), Biomol green phosphate detection; assay type: biochemical; conditions: 300 nM CpKRS, 500 μM ATP, 1.2 mM L-Lysine, 8 h room temperature; read-out: C. parvum KRS pIC50 (converted)
Cryptosporidium parvum lysyl t-RNA synthetase (Cp KRS), sequence (Q5CR27 entry or part of it): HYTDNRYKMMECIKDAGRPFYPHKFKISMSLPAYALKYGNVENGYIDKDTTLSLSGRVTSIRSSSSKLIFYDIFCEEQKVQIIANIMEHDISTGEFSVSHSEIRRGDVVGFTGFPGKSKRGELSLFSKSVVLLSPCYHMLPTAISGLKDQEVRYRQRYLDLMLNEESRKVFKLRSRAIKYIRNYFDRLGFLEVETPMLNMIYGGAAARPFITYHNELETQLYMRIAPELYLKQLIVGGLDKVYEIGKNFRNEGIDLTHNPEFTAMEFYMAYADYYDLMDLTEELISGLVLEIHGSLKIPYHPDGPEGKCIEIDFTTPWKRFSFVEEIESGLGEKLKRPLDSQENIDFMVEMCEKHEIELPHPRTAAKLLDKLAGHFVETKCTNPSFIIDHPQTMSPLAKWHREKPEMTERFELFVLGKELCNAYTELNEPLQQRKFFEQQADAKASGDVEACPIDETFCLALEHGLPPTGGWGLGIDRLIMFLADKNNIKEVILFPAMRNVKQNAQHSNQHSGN
Excerpt: The protein expression and purification method for recombinant CpKRS was described in Baragana et aL, PNAS, 2019, 116 (4), 7015-7020 and will be summarised below.
The C. parvum KRS had 45 residues removed at the N-terminus. All amplicons were cloned into the pAVA0421 expression vector using the ligation independent cloning (LIC) method. Recombinant plasmids were transformed into Rosetta BL21(DE3) competent cells and plated on LB agar plates with ampicillin, carbenicillin, and chloramphenicol selection. Clones were expressed using previously reported autoinduction methods and scaled to 2-litre cultures in a shake flasks. Cell pellets were harvested and lysed with 100 mM HEPES/150 mM NaCl/5% Glycerol/20 mM imidazole/0.5 mM TCEP pH 7.5/DNase/Complete inhibitor tablets) using a Cell Disrupter (Constant Systems) at 30 KPSI and centrifuged at 40,000 g for 20 min remove cell debris. The supernatant was loaded onto a 5 ml HiTrap Ni HP column that had been equilibrated with Buffer A (100 mM HEPES/150 mM NaCl/5% Glycerol/20 mM imidazole/0.5 mM TCEP pH 7.5) at 5 ml/min using an AKTA Pure system. Once loaded the column was washed with 10 column volumes of buffer A. A 5% step of Buffer B (100 mM HEPES/150 mM NaCl/5% Glycerol/500 mM imidazole/0.5 mM TCEP pH 7.5) was then used to wash off His-rich contaminating proteins. A linear gradient of 5-50% B was used to elute the protein. Approximately 287 mg of protein was present in the fractions containing the CpKRS protein. The sample was then concentrated to approximately 30 ml, passed through a 0.2 μm filter, before loading onto a XK26/60 Superdex 200 column using an AKTA Pure system at 4° C. at 2 ml/min 10 ml at a time. The eluted protein was pooled then frozen at −80° C. The concentration of the protein was 1.3 mg/ml. Sometimes the protein was cleaved with PreScission protease overnight, a second Ni column performed in flow through mode to removed uncleaved protein. GST beads were then added to remove the PreScission Protease. The protein was then gel filtered as descripted above.
Assay Method for Measurement of In Vitro Inhibition of Cryptosporidium lysyl tRNA Synthetase (KRS)
Potency of compounds was determined in 10 points dose-response inhibition curves. Compounds were transferred into 384-well clear bottom plates (Greiner Bio-One, 781101) using an Echo 550 acoustic dispenser (Labcyte). Using an automatic liquid dispenser, 50 μL reaction mixes were prepared by adding 25 μL of substrate mix into all wells followed by the addition of 25 μL enzyme mix into compounds and no inhibition control wells (final reaction: 100 mM HEPES, pH 7.4, 20 mM MgCl2, 1 mM DTT, 500 μM ATP, 1.2 mM L-Lysine, 300 nM CpKRS and 0.5 U/mL Pyrophosphatase). Complete inhibition control reactions were performed in the absence of enzyme and the plates were incubated at room temperature for 8 h. Reactions were stopped by the addition of Biomol green (50 μL: Enzo Life Sciences) with the amount of free phosphate detected by measuring absorbance (650 nm) after 20 min further incubation (BMG Pherastar plate reader). Counter screen assays to eliminate direct inhibition of pyrophosphatase were performed using 0.5 U/mL pyrophosphatase and 3 μM pyrophosphate as substrate in the same assay buffer (100 mM HEPES, pH 7.4, 20 mM MgCl2, 1 mM DTT) for 8 hours at room temperature. Biomol green was added and incubated for 20 min before detection as above. Samples were run in duplicate and data was processed and analysed using ActivityBase (IDBS).

C. parvum Iowa strain = assay: Cryptosporidiosis NOD SCID gamma mouse model, fecal oocyst shedding by quantitative PCR; assay type: in vivo, Cryptosporidium parvum; conditions: NOD SCID gamma mice, average reduction in oocyst shedding compared to untreated vehicle
Excerpt: The in vivo measurement of the potential efficacy of compounds of formula (I) in a cryptosporidium mouse model has been carried out following the method described in Antimicrob. Agents Ch., 2018, 62, 4, e01505-17, and which is summarised below. The cryptosporidiosis NOD SCID gamma mouse model was run as follows: Male NOD SCID gamma mice (NOD.Cg-Prkdc^scid II2rg^tm1Wjt/SzJ, Jackson Labs) were infected approximately 2 weeks post weaning with 10^5 C. parvum Iowa strain oocysts by oral gavage. Four mice were used per experimental group. This establishes a chronic, asymptomatic infection of the small intestine, cecum, and biliary tree. Fecal parasite shedding is monitored by quantitative PCR to amplify C. parvum DNA. One week after infection (which is the timing with which shedding becomes uniformly detected), compounds are dosed by oral gavage. Treatment continued for seven days total. The number of oocysts per milligram of stool was measured for each mouse on day 8 (1 day after completion of the last dose) and day 15 […] (7 days after the completion of the last dose). Average oocyst concentrations were calculated for each group of mice. Log reduction is the average reduction in oocyst shedding compared to untreated vehicle. These experiments were run in accordance with the method of C. D. Huston et al, Antimicrob. Agents Ch., 2018, 62, 4, e01505-17.

Row | SMILES | IC50 [1] | Log Reduction (day 8) (C. parvum Iowa strain; 10 mg/kg P.O. B.I.D. 7 days) | Log Reduction (day 15) (C. parvum Iowa strain; 10 mg/kg P.O. B.I.D. 7 days) | Log Reduction (day 8) (C. parvum Iowa strain; 30 mg/kg P.O. B.I.D. 7 days) | Log Reduction (day 15) (C. parvum Iowa strain; 30 mg/kg P.O. B.I.D. 7 days) | Log Reduction (day 8) (C. parvum Iowa strain; 20 mg/kg P.O. B.I.D. 7 days) | Log Reduction (day 15) (C. parvum Iowa strain; 20 mg/kg P.O. B.I.D. 7 days) | Log Reduction (day 8) (C. parvum Iowa strain; 40 mg/kg P.O. B.I.D. 7 days) | Log Reduction (day 15) (C. parvum Iowa strain; 40 mg/kg P.O. B.I.D. 7 days) | Log Reduction (day 8) (C. parvum Iowa strain; 50 mg/kg P.O. B.I.D. 7 days) | Log Reduction (day 15) (C. parvum Iowa strain; 50 mg/kg P.O. B.I.D. 7 days)
1 | Cc1nc(N)nc2c1C(=O)N(C[C@@H]1CCC[C@H](C(F)(F)F)C1)C2 [Compound 2, 2-amino-4-methyl-6-(((1R,3S)-3-(trifluoromethyl)cyclohexyl)methyl)-6,7-dihydro-5H-pyrrolo[3,4-d]pyrimidin-5-one] | 794 nM | 1.8 | 0.8 | 2.7 | 2.4 | – | – | – | – | – | –
2 | Nc1nc2c(c(C(F)(F)F)n1)C(=O)N(C[C@@H]1CCC[C@H](C(F)(F)F)C1)C2 [Compound 1, 2-amino-4-(trifluoromethyl)-6-(((1R,3S)-3-(trifluoromethyl)cyclohexyl)methyl)-6,7-dihydro-5H-pyrrolo[3,4-d]pyrimidin-5-one] | 794 nM | 3.0 | 1.0 | 2.9 | 2.2 | 3.1 | 0.7 | 2.6 | 2.9 | 3.4 | 3.5
3 | Nc1nc2c(c(C(F)F)n1)C(=O)N(C[C@@H]1CCC[C@H](C(F)(F)F)C1)C2 [Compound 3, 2-amino-4-(difluoromethyl)-6-(((1R,3S)-3-(trifluoromethyl)cyclohexyl)methyl)-6,7-dihydro-5H-pyrrolo[3,4-d]pyrimidin-5-one] | 1000 nM | 2.4 | 1.0 | 2.8 | 1.6 | – | – | – | – | – | –
4 | Nc1nc2c(c(C(F)(F)F)n1)C(=O)N(CC1CCCC3(CC3)C1)C2 (racemic) [Compound 4, 2-amino-6-(spiro[2.5]octan-5-ylmethyl)-4-(trifluoromethyl)-6,7-dihydro-5H-pyrrolo[3,4-d]pyrimidin-5-one] | 2510 nM | 1.3 | 1.0 | – | – | – | – | – | – | 3.4 | 2.5
